# Patent US9274101B2 (BIOLOG, Inc., priority 2001, dated 2016)
# Like-named read-outs stand apart in the source and are kept apart here.
# Legend:
# [1] = system: TK-1 cells; experiment: TK-1 cells in PM1 and PM2 plates, with or without 0.5 mM sodium pyruvate; assay type: cell-based, mouse
# Method: In this Example, methods for testing a murine T lymphoma cells (Butcher et al., Eur. J. Immunol., 10:556-561 [1980]), for their ability to use multiple carbon sources are described. The methods used to culture the TK-1 lymphoma cell line were similar to those used to culture HL-60 cells, as described in Example 27.
# TK-1 cells were grown in Falcon tissue culture flasks with vented tops. Culture medium was RPMI 1640 medium (Invitrogen 11875) with 4.5 g/L glucose, 2 mM L-glutamine, 1 mM sodium pyruvate, 0.1 mM nonessential amino acids (NEAA), 0.05 mM 2-mercaptoethanol (2ME), 2 g/L sodium bicarbonate, 5 mg/L phenol red, 50 U/mL penicillin, 50 μg/mL streptomycin, and 10% (v/v) heat inactivated fetal bovine serum (HI FBS, Invitrogen 16140). The cells were seeded at 3×10^5/mL, subcultured at 3 days after initiation of culture to 10^6 cells/mL and used 24 hours later. During all incubations, the cells were kept in an atmosphere of 5% CO2, 90-100% humidity, and 37° C.
# A viable cell count was obtained by trypan blue exclusion and an appropriate volume of the cell suspension was placed in a polypropylene centrifuge tube. The cells were washed in DPBS and then resuspended to two-thirds the final volume needed in Dulbecco ? s Modified Eagle ? s Medium (DME, Sigma D5030) with the supplements listed in Table 17, as well as 2-ME, sodium pyruvate and NEAA, and including 10% HI FBS, but without glucose, L-glutamine, sodium pyruvate, and phenol red. This medium is termed DME-RTK. An aliquot was counted by trypan blue exclusion and the cell density was adjusted to 1×10^6/mL. Fifty μL of DME-RTK were added to each well of the appropriate number of half area, 96-well plates (PM1 and PM2 MICROPLATE testing plates). The cells were divided into two lots and one lot received a 1/100 dilution of 100 mM sodium pyruvate (final concentration, 0.5 mM). Cells from both lots were plated at a final cell density of 5×10^4/well (50 μL/well). For each plate containing chemicals and cells, a second, control plate containing only chemicals was prepared. Plates were incubated at 5% CO2, 90-100% humidity, and 37° C. for 1 hour prior to addition of the MTS/MPMS colorimetric reagent (5 μL/well). The color formed in each well 24 hours after addition of the colorimetric reagent, was measured with a plate reader at 490 nm with a reference wavelength of 650 nm. OD values from the control plate were subtracted from the OD values obtained with cells prior to normalizing the data to % negative control.
# [2] = system: ten strains of E. coli; assay type: cell-based, Escherichia coli; further: key: +: indicates that the organism tested was capable of utilizing the carbon source listed; −: indicates that the organism tested was not capable of utilizing the carbon source listed; indicates weak positive reactions
# [3] = system: IMR-90 cells; experiment: Testing of IMR-90 cells in PM1a testing plates; assay type: cell-based; details: for color of well: 24 hours of incubation
# Method: IMR-90 cells were cultured in DMEM in 150 mm diameter petri dishes to near confluence under suitable conditions (e.g., 5% CO2, at 37° C.). The cells were harvested from 19 petri dishes, using the standard trypsin-EDTA procedure to detach the cells (i.e., 5 minute treatment with trypsin-EDTA), pooled and centrifuged at 1000×g for 5 minutes at 2-8° C., and resuspended in HBSS without phenol red. The cells were again centrifuged and resuspended in 24 ml inoculating fluid (IF-h). The cell density as determined by measurement using a Coulter Counter was about 3,000,000 cells/ml. Two-fold serial dilutions were prepared using prewarmed inoculating fluid, by mixing 12 ml of cell suspension with 12 ml IF-h, to produce six suspensions having 3,000,000 cells/ml (undiluted), 1,500,000 cells/ml, 750,000 cells/ml, 375,000 cells/ml, 187,500 cells/ml, and 93,750 cells/ml. A “no cell” control was also prepared, using 12 ml inoculating fluid. Each of the cell suspensions was then immediately inoculated into a PM1a PHENOTYPE MICROARRAY testing panel (Biolog), with about 100 μl of suspension added per well.
# After approximately 4.5 hours of incubation at 37° C. in a CO2 incubator, the PHENOTYPE MICROARRAY testing panels were visually examined. […] The amount of background pink color was somewhat varied, depending upon the cell concentration. At the highest cell densities, there was a light pink color in all of the wells.
# [4] = system: HL-60 cells; experiment: HL-60 cells in PM1 and PM2 plates, MTS/MPMS color, % negative control; assay type: cell-based, human; details: label = PM1 well (row+column); MTS/MPMS color after 24 hour, OD 490 nm
# [5] = system: Staphylococcus aureus (ATCC #29213); experiment: MIC determination in MICROPLATE testing plates, saline vs GELRITE inoculant; assay type: cell-based; details: ATCC29213, 18 h, SF-P plates with resazurin, 35° C.
# Method: All three antimicrobials were obtained from Sigma. […] Kanamycin and tetracycline were dissolved in sterile water.
# [6] = system: E. coli MG1655; assay type: cell-based, Escherichia coli
# [7] = system: E. coli (MG1655); experiment: Sensitivity in ES1, ES2, ES3 MICROPLATE panels in the presence of vancomycin or sulfamethoxazole (synergy/antagonism); assay type: cell-based, Escherichia coli
# [8] = system: E. coli MG1655; experiment: PM kinetic profiles of antimicrobials, S-O-R scoring and dendrogram; assay type: cell-based, Escherichia coli
# [9] = in the presence of 0.5 mM sodium pyruvate
# [10] = approximately 4.5 hours at 37° C.
compound,measurement,setting,value
O=C(O)c1ccc(O)cc1 [4-hydroxy-benzoic acid],response of TK-1 cells,[1]; [9],gained responses
O=C[C@@H](O)[C@@H](O)[C@H](O)[C@H](O)CO [D-mannose],carbon source utilization,[2],+
same,color of well,[3],distinctly darker clump of red cells
same,cellular morphology (microscopic),[3]; [10],the cells looked healthy
O=C(CO)[C@H](O)[C@H](O)[C@H](O)CO [D-psicose],carbon source utilization,[2],+
same,cellular morphology (microscopic),[3]; [10],the cells looked healthy
same,color of well (carbon source oxidation),[3]; [10],distinctly more pink than any other well
O=C(O)CC(CC(=O)O)C(=O)O [G2],Response of HL-60 Cells to the Carbon Sources of PM1,[4],96 % of negative control
"NC[C@H]1O[C@H](O[C@H]2[C@H](O)[C@@H](O[C@H]3O[C@H](CO)[C@@H](O)[C@H](N)[C@H]3O)[C@H](N)C[C@@H]2N)[C@H](O)[C@@H](O)[C@@H]1O [Kanamycin, kanamycin]",MIC,[5]; diluent GELRITE (0.4%),16 to 32 µg/mL
same,MIC,[5]; diluent Saline,16 to 32 µg/mL
N[C@@H](CCO)C(=O)O [L-homoserine],"suitability as nitrogen source (growth, purple color)",[6],not suitable
same,response of TK-1 cells,[1]; [9],lost responses
NCCC[C@H](N)C(=O)O [L-ornithine],"suitability as nitrogen source (growth, purple color)",[6],not suitable
same,response of TK-1 cells,[1]; [9],lost responses
N[C@@H](Cc1ccccc1)C(=O)O [L-phenylalanine],"suitability as nitrogen source (growth, purple color)",[6],not suitable
same,response of TK-1 cells,[1]; [9],gained responses
COC(=O)C(C)=O [Methyl pyruvate],carbon source utilization,[2],+
same,cellular morphology (microscopic),[3]; [10],the cells were rounded up and appeared to be stressed
"CN(C)[C@@H]1C(O)=C(C(N)=O)C(=O)[C@@]2(O)C(O)=C3C(=O)c4c(O)cccc4[C@@](C)(O)[C@H]3C[C@@H]12 [Tetracycline, tetracycline]",MIC,[5]; diluent GELRITE (0.4%),0.25 to 1 µg/mL
same,MIC,[5]; diluent Saline,0.25 to 2 µg/mL
OC[C@H]1O[C@@H](Oc2ccc(O)cc2)[C@H](O)[C@@H](O)[C@@H]1O [arbutin],response of TK-1 cells,[1]; [9],gained responses
CC(=O)OCC1=C(C(=O)O)N2C(=O)[C@@H](NC(=O)Cc3cccs3)[C@H]2SC1 [cephalothin],change of sensitivity to the panel compound,[7]; in the presence of 10 μg/ml vancomycin,increased sensitivity
same,change of sensitivity to the panel compound,[7]; in the presence of 235 μg/ml sulfamethoxazole,increased sensitivity
same,position in dendrogram of PM response profiles (FIG. 9),"[8]; 1× level of each antimicrobial, 7 PMs, 48 hours",cluster
CCn1cc(C(=O)O)c(=O)c2ccc(C)nc21 [nalidixic acid],change of sensitivity to the panel compound,[7],increased sensitivity
same,position in dendrogram of PM response profiles (FIG. 9),[8],did not cluster with the other two DNA gyrase inhibiting chemicals
O=C(O)CCCCCCCCC(=O)O [sebacic acid],response of TK-1 cells,[1]; [9],gained responses
O=C([O-])CC(O)C(=O)[O-].[Na+].[Na+] (stereo not drawn) [sodium malate],cellular morphology (microscopic),[3],the cells were rounded up and appeared to be stressed
OC[C@H]1O[C@@H](O[C@H]2[C@H](O)[C@@H](O)[C@@H](O)O[C@@H]2CO)[C@H](O)[C@@H](O)[C@H]1O [α-D-lactose],carbon source utilization,[2],+
same,color of well,[3],distinctly darker clump of red cells
CO[C@@H]1OC[C@@H](O)[C@H](O)[C@H]1O [β-methyl xyloside],response of TK-1 cells,[1]; [9],gained responses
O=C(O)CCCO [γ-hydroxybutyric acid],response of TK-1 cells,[1],lost responses
pectin,response of TK-1 cells,[1]; [9],gained responses
